Test results from patent US20140336248A1, “THERAPEUTIC COMPOSITIONS AND RELATED METHODS OF USE” (priority 2011, published 2014).

Columns and labels:
Format in all cases: in vivo, mouse
[1] = system: ICR mice; experiment: Tolerability 0.3, 0.6, 1.0 mg/kg IV in 1% ethanol/4% propylene glycol/5% Solutol HS 15 (Example H); conditions: male ICR mice
Description: (§1) Injectable salinomycin compositions were prepared as follows: A) 0.2 mg/mL composition: 1.01 mg of salinomycin sodium was added to 50 μL ethanol and vortexed for 1 minute to yield a clear solution. 200 μL of propylene glycol was then added and vortexed for 1 minute, yielding a clear solution. To this solution was next added 250 μL Solutol® HS 15, with vortexing for 1 minute and sonicating for 1 minute, to yield a clear solution.
(§2) Eight male ICR mice (Sino-British SIPPR/BK Lab Animal Ltd, Shanghai, China) were assigned to control and treatment groups. […] The individual animal number marked on the tail, and study number comprised a unique identification for each animal. Animal identification was verified during the course of the study. The animals were housed two per cage in stainless steel suspended cage in an environmentally controlled room. SLACOM (Rodent Diet #20110615029, Shanghai SLAC Laboratory Animal Co. Ltd.) was available ad libitum. Temperature and humidity were monitored and recorded twice daily.
(§3) Each composition and the vehicle (control) were administered once daily to each of two mice via intravenous bolus injection for 5 consecutive days. The dose levels for the treated groups and the control group are in the below table. Individual doses were based on the most recent body weight.
(§4) Body weights for all animals were measured and recorded at receipt, prior to randomization, and once daily during the study. Body weight change was calculated for mean value of animals relative to Day 1 mean body weight value.

[2] = system: ICR mice; experiment: Tolerability 1.5, 2.0, 3.0 mg/kg IV in 1% ethanol/4% propylene glycol/5% Solutol HS 15 (Example I); conditions: for Body weight: FIG. 2
Description: as §1, with “0.6” for “0.2”, “3.03” for “1.01”
as §2, §3, §4

[3] = system: ICR mice; experiment: Tolerability IV in 5% ethanol/15% Solutol HS 15, 5 days (Example L); conditions: for Clinical observations: one animal
Description: Injectable salinomycin compositions were prepared as follows: 0.6 mg/mL stock solution: 1.2 mg of salinomycin sodium was added to 100 μL ethanol and vortexed for 2 minutes and sonicated for 2 minutes to yield a clear solution. To this solution was next added 300 μL Solutol® HS 15, with vortexing for 1 minute. Finally, 1.6 mL water was added to produce a clear stock solution of 0.6 mg/mL salinomycin sodium.
as §2, with “Six” for “Eight”
as §3, §4

[4] = system: ICR mice; experiment: Tolerability 0.1, 0.3, 1.0, 3.0 mg/kg IV in 5% ethanol/15% Solutol HS 15, 4 days (Example N)
Description: as §2, with “Using the techniques described above in Example A, an aqueous vehicle comprising 5% ethanol (v/v) and 15% Solutol® HS 15 (v/v) was prepared. An appropriate amount of salinomycin sodium was dissolved into the vehicle to make solutions having concentrations of 0.02, 0.06, 0.2, and 0.3 mg/mL. Ten male ICR” for “Eight male ICR”, “animal number was marked on” for “animal number marked on”
(§5) Each composition and the vehicle (control) were administered once daily to each of two mice via intravenous bolus injection for 4 consecutive days. The dose levels for the treated groups and the control group are in the below table. Individual doses were based on the most recent body weight.
as §4

[5] = system: ICR mice; experiment: Tolerability 0.1, 0.3, 1.0 mg/kg IV in 1% ethanol/4% propylene glycol/5% Solutol HS 15, 4 days (Example P)
Description: as §2, with “Using the techniques described above in Example A, an aqueous vehicle comprising 1% ethanol (v/v), 4% propylene glycol (v/v) and 5% Solutol® HS 15 (v/v) was prepared. An appropriate amount of salinomycin sodium was dissolved into the vehicle to make solutions having concentrations of 0.02, 0.06, and 0.2 mg/mL. Eight male” for “Eight male”, “animal number was marked on” for “animal number marked on”
as §5, §4

[6] = system: ICR mice; experiment: Tolerability 0.03, 0.1, 0.3, 1.0 mg/kg IV in 5% ethanol/10% propylene glycol/20% Solutol HS 15, 4 days (Example Q); conditions: 5% ethanol/10% propylene glycol/20% Solutol HS 15 (heading)
Description: as §2, with “Using the techniques described above in Example A, an aqueous vehicle comprising 5% ethanol (v/v), 10% propylene glycol (v/v), and 10% Solutol® HS 15 (v/v) was prepared. An appropriate amount of salinomycin sodium was dissolved into the vehicle to make solutions having concentrations of 0.006, 0.02, 0.06, and 0.2 mg/mL. Ten male ICR” for “Eight male ICR”, “animal number was marked on” for “animal number marked on”
as §5, §4

CC[C@@H](C(=O)[C@@H](C)[C@@H](O)[C@H](C)[C@@H]1O[C@@H]([C@@H](CC)C(=O)O)CC[C@@H]1C)[C@H]1O[C@]2(C=C[C@@H](O)[C@]3(CC[C@@](C)([C@H]4CC[C@](O)(CC)[C@H](C)O4)O3)O2)[C@H](C)C[C@@H]1C [salinomycin sodium]
Abnormalities detected ([1]; 0.3, 0.6, 1.0 mg/kg IV bolus once daily 5 days): no abnormalities
Body weight change relative to Day 1 ([1]; 0.3, 0.6, 1.0 mg/kg IV bolus once daily 5 days, FIG. 1): all groups added weight
Dose that can be safely dosed ([1]; IV once daily 5 days): 1 mg/kg
Clinical observations ([2]; 1.5 mg/kg IV once daily 5 days): decreased activity levels
Recovery ([2]; 1.5 mg/kg IV once daily 5 days): returned to normal function at the conclusion of the study
Body weight ([2]; 2 mg/kg IV once daily 5 days): lost weight
Clinical observations ([2]; 2.0 mg/kg IV once daily 5 days, post dosage): decreased activity and rapid breathing
Mortality ([2]; 2.0 mg/kg IV once daily 5 days, two mice): One of the animals dosed at 2.0 mg/kg was found dead on day 4
Clinical observations ([2]; 3.0 mg/kg IV once daily 5 days, after dosing): decreased activity, rapid breathing and loss of reflex activity
Body weight ([2]; 1.5 and 3.0 mg/kg IV once daily 5 days): stable
Clinical observations ([3]; 0.1 mg/kg IV once daily 5 days): decreased activity immediately after dosing on day 1
Clinical observations ([3]; 0.3 mg/kg IV once daily 5 days): hypersensitivity to touch after dosing on day 1
Body weight change relative to Day 1 ([3]; 0.1, 0.3 mg/kg IV once daily 5 days, FIG. 5): all groups added weight
Clinical observations ([4]; 0.1 mg/kg IV once daily 4 days): no abnormalities
Clinical observations ([4]; 0.3 mg/kg IV once daily 4 days): no abnormalities
Clinical observations ([4]; 1.0 mg/kg IV once daily 4 days, after the first administration, no abnormalities on days 2, 3, 4): decreased activity, decreased grasping, and laying prostrate
Mortality ([4]; 3.0 mg/kg IV): died shortly after administration
Body weight ([4]; each group surviving administration, IV once daily 4 days, FIG. 7): relatively stable
Clinical observations ([5]; 0.1 mg/kg IV once daily 4 days): no abnormalities
Clinical observations ([5]; 0.3 mg/kg IV once daily 4 days): no abnormalities
Clinical observations ([5]; 1 mg/kg IV once daily 4 days, no abnormalities on days 2, 3, 4): decrease in activity after initial administration
Body weight ([5]; 0.1, 0.3, 1 mg/kg IV once daily 4 days, FIG. 9): increased
Clinical observations ([6]; 0.03 mg/kg IV once daily 4 days): no abnormalities
Clinical observations ([6]; 0.1 mg/kg IV once daily 4 days, after administration, no abnormalities on days 2, 3, 4): decreased activity and discolored urine (red)
Clinical observations ([6]; 0.3 mg/kg IV once daily 4 days, after administration, no abnormalities on days 2, 3, 4): decreased activity and discolored urine (red)
Mortality ([6]; 1.0 mg/kg IV): died shortly after administration
Body weight ([6]; each group surviving administration, IV once daily 4 days, FIG. 10): relatively stable
